Consider 23 molecules from PMC10674894 (Viruses, 2023).

Molecules are shown by their SMILES.

For one data set, the system named is Vero cells. The data set can be described thus: Cytotoxicity MTT assay in Vero cells (MNTD, CC50). In kind it is cell-based, African green monkey. To be noted: Table S1; Vero cells.
In a further data set the test system is CHIKV DRDE-07. The data set can be described thus: In vitro screening against CHIKV (CPE inhibition and MTT cell viability). In kind it is cell-based, chikungunya virus. To be noted: Table S1, CHIKV-infected Vero cells; for % Cell viability: 72 hpi, MTT assay; for CPE: arbitrary score of cytopathic effect at >48 hpi.

Molecule `O=C(O)c1ccc(/C=N/NC(=O)c2ccncc2)cc1` [DCR43, (E)-4-((2-isonicotinoylhydrazono)methyl)benzoic acid] registered an MNTD in the data set on Vero cells of 31.25 µM. Also, in the data set on CHIKV DRDE-07, the “% Cell viability” value amounted to 16.82% and the CPE result is reported as “++++ (>60% (++++))”.

In the data set with Vero cells, `C/C(=N\NC(=O)c1ccncc1)c1ccccc1O` [DCR44, (E)-N'-(1-(2-hydroxyphenyl)ethylidene)isonicotinohydrazide] yielded an MNTD of 31.25 µM. In the data set with CHIKV DRDE-07, the “% Cell viability” value was 18.88% and the CPE result is on record as “++++ (>60% (++++))”.

The molecule `C/C(=N\NC(=O)c1cccnc1)c1ccc(O)cc1` [DCR45, (E)-N'-(1-(4-hydroxyphenyl)ethylidene)nicotinohydrazide] came in with an MNTD with Vero cells of 31.25 µM. Also, in the data set on CHIKV DRDE-07, the “% Cell viability” value worked out at 15.55% and the CPE entry was “++++ (>60% (++++))”.

Turning to `C/C(=N\NC(=O)c1cccnc1)c1ccccc1N` [DCR46, (E)-2-(1-(2-nicotinoylhydrazono)ethyl)benzenaminium], the MNTD in the data set on Vero cells is 31.25 µM. For the same molecule, in the data set with CHIKV DRDE-07, the “% Cell viability” value was found to be 27.31% and the CPE entry is reported as “++++ (>60% (++++))”.

As for `C/C(=N\NC(=O)c1cccnc1)c1c(O)ccc2ccccc12` [DCR47, (E)-N'-(1-(2-hydroxynaphthalen-1-yl)ethylidene)nicotinohydrazide], the MNTD in the data set on Vero cells turned out to be 31.25 µM. Further, in the data set with CHIKV DRDE-07, the “% Cell viability” value worked out at 6.42% and the CPE entry is reported as “++++ (>60% (++++))”.

Take `COc1ccc(/C(=N\NC(=O)c2cccnc2)c2ccccc2)cc1` [DCR48, (Z)-N'-((4-methoxyphenyl)(phenyl)methylene)nicotinohydrazide]: in the data set on Vero cells, the MNTD is listed as 31.25 µM. In the data set with CHIKV DRDE-07, the “% Cell viability” value is on record as 20.87% and the CPE result is “++++ (>60% (++++))”.

Consider `C/C(=N\NC(=O)c1ccncc1)c1ccccc1O` [DCR49, (E)-N'-(1-(2-hydroxyphenyl)ethylidene)isonicotinohydrazide], for which, in the data set on Vero cells, the MNTD turned out to be 62.5 µM. In the data set on CHIKV DRDE-07, the “% Cell viability” value came to 48.9% and the CPE result is on record as “+++ (60-50% (+++))”.

As to `C/C(=N\NC(=O)c1ccncc1)c1ccc(O)cc1` [DCR50, (E)-N'-(1-(4-hydroxyphenyl)ethylidene)isonicotinohydrazide], the MNTD in the data set with Vero cells is recorded as 62.5 µM. Further, in the data set with CHIKV DRDE-07, the “% Cell viability” value was found to be 18.01% and the CPE entry was “++++ (>60% (++++))”.

As for `C/C(=N\NC(=O)c1ccncc1)c1ccccc1N` [DCR51, (E)-2-(1-(2-isonicotinoylhydrazono)ethyl)benzenaminium], in the data set on Vero cells, the MNTD is reported as 62.5 µM. In addition, in the data set on CHIKV DRDE-07, the “% Cell viability” value is listed as -2.93% and the CPE entry is listed as “++++ (>60% (++++))”.

The molecule `C/C(=N\NC(=O)c1ccncc1)c1c(O)ccc2ccccc12` [DCR52, N'-[(1E)-1-(2-hydroxynaphthalen-1-yl)ethylidene]pyridine-4-carbohydrazide] displayed an MNTD in the data set with Vero cells of 31.25 µM. For the same molecule, in the data set with CHIKV DRDE-07, the “% Cell viability” value is 30.87% and the CPE entry is “++++ (>60% (++++))”.

The molecule `COc1ccc(/C(=N\NC(=O)c2ccncc2)c2ccccc2)cc1` [DCR53, N'-[(1Z)-(4-methoxyphenyl)(phenyl)methylidene]pyridine-4-carbohydrazide] yielded an MNTD in the data set with Vero cells of 31.25 µM. For the same molecule, in the data set with CHIKV DRDE-07, the “% Cell viability” value is recorded as 11.42% and the CPE result is given as “++++ (>60% (++++))”.

`O=C(c1cccnc1)n1nc(-c2ccc(O)cc2)cc1-c1ccc(Cl)cc1Cl` [DCR54, 4-[5-(2,4-dichlorophenyl)-1-(pyridine-3-carbonyl)-1H-pyrazol-3-yl]phenol]: in the data set on Vero cells, the MNTD is 15.62 µM. In the data set on CHIKV DRDE-07, the “% Cell viability” value came to 8.73% and the CPE result is “++++ (>60% (++++))”.

In turn, `O=C(c1cccnc1)n1nc(-c2ccc(O)cc2)cc1-c1ccccc1` [DCR55, 4-[5-phenyl-1-(pyridine-3-carbonyl)-1H-pyrazol-3-yl]phenol] displayed an MNTD with Vero cells of 31.25 µM. For the same molecule, in the data set with CHIKV DRDE-07, the “% Cell viability” value turned out to be 17.69% and the CPE entry was “++++ (>60% (++++))”.

On to `Cc1ccc(-c2cc(-c3ccc(O)cc3)nn2C(=O)c2cccnc2)cc1` [DCR56, 4-[5-(4-methylphenyl)-1-(pyridine-3-carbonyl)-1H-pyrazol-3-yl]phenol], for which, in the data set with Vero cells, the MNTD is listed as 31.25 µM. In addition, in the data set on CHIKV DRDE-07, the “% Cell viability” value was 24.2% and the CPE entry was “++++ (>60% (++++))”.

As for `Cc1ccc(-c2cc(-c3ccc(O)cc3)nn2C(=O)c2cccnc2)cc1` [DCR57, 4-[5-(4-methylphenyl)-1-(pyridine-3-carbonyl)-1H-pyrazol-3-yl]phenol], the MNTD with Vero cells came out at 31.25 µM. In addition, in the data set on CHIKV DRDE-07, the “% Cell viability” value is reported as 24.84% and the CPE result is given as “++++ (>60% (++++))”.

The molecule `CCOc1ccc(-c2cc(-c3ccc(O)cc3)nn2C(=O)c2cccnc2)cc1OC` [DCR58, 4-[5-(4-ethoxy-3-methoxyphenyl)-1-(pyridine-3-carbonyl)-1H-pyrazol-3-yl]phenol] had an MNTD with Vero cells of 15.62 µM. Besides, in the data set with CHIKV DRDE-07, the “% Cell viability” value is on record as 8.17% and the CPE entry is recorded as “++++ (>60% (++++))”.

As for `CCOc1cc(-c2cc(-c3ccc(O)cc3)nn2C(=O)c2cccnc2)ccc1O` [DCR59, 2-ethoxy-4-[3-(4-hydroxyphenyl)-1-(pyridine-3-carbonyl)-1H-pyrazol-5-yl]phenol], the MNTD with Vero cells is 15.62 µM. Further, in the data set with CHIKV DRDE-07, the “% Cell viability” value was determined as 49.1% and the CPE result is “+++ (60-50% (+++))”.

With `COc1cc(-c2cc(-c3ccc(O)cc3)nn2C(=O)c2cccnc2)cc(OC)c1OC` [DCR60, 4-[1-(pyridine-3-carbonyl)-5-(3,4,5-trimethoxyphenyl)-1H-pyrazol-3-yl]phenol], the MNTD with Vero cells stood at 31.25 µM. In the data set on CHIKV DRDE-07, the “% Cell viability” value is on record as -3.41% and the CPE result is reported as “++++ (>60% (++++))”.

In the data set on Vero cells, `COc1ccc(Br)cc1-c1cc(-c2ccc(O)cc2)nn1C(=O)c1cccnc1` [DCR61, 4-[5-(5-bromo-2-methoxyphenyl)-1-(pyridine-3-carbonyl)-1H-pyrazol-3-yl]phenol] showed an MNTD of 31.25 µM. In the data set on CHIKV DRDE-07, the “% Cell viability” value turned out to be 12.22% and the CPE entry is listed as “++++ (>60% (++++))”.

In turn, `O=C(O)c1ccc(-c2cc(-c3ccc(O)cc3)nn2C(=O)c2cccnc2)cc1` [DCR62, 4-[3-(4-hydroxyphenyl)-1-(pyridine-3-carbonyl)-1H-pyrazol-5-yl]benzoic acid] displayed an MNTD with Vero cells of 31.25 µM. In addition, in the data set on CHIKV DRDE-07, the “% Cell viability” value is given as -27.93% and the CPE entry is “++++ (>60% (++++))”.

In turn, `O=C(c1cccnc1)n1nc(-c2ccc(O)cc2)cc1-c1cccc([N+](=O)[O-])c1` [DCR63, 4-[5-(3-nitrophenyl)-1-(pyridine-3-carbonyl)-1H-pyrazol-3-yl]phenol] had an MNTD with Vero cells of 31.25 µM. Moreover, in the data set on CHIKV DRDE-07, the “% Cell viability” value is -4.2% and the CPE entry is given as “++++ (>60% (++++))”.

`O=C1NC(c2ccc(Cl)cc2)c2c(ccc3ccccc23)O1` (stereo not drawn) [DCR64, 1-(4-chlorophenyl)-1H,2H,3H-naphtho[1,2-e][1,3]oxazin-3-one]: the MNTD in the data set with Vero cells turned out to be 31.25 µM. In addition, in the data set on CHIKV DRDE-07, the “% Cell viability” value is reported as -3.8% and the CPE entry is “++++ (>60% (++++))”.

`O=C1NC(c2ccc(F)cc2)c2c(ccc3ccccc23)O1` (stereo not drawn) [DCR65, 1-(4-fluorophenyl)-1H,2H,3H-naphtho[1,2-e][1,3]oxazin-3-one]: the MNTD in the data set with Vero cells turned out to be 53.27 µM. For the same molecule, in the data set with CHIKV DRDE-07, the “% Cell viability” value is 12.63% and the CPE entry is given as “++++ (>60% (++++))”.
